Laboratory results: US12390483B2, “Compounds and methods for treating neurological and cardiovascular conditions” (Astrocyte Pharmaceuticals, Inc., priority 2016, dated 2025)
Read-outs that look alike come from different tables or passages of the source.

How the values were obtained:
[1] = In vitro stability and metabolite scouting of MRS2365 in human plasma; type: in vitro ADME
Procedure: Whole blood was obtained from male CD-1 mice and human volunteers at Seventh Wave Laboratories (Maryland Heights, MO). Plasma and blood samples were prepared using either EDTA (1 mM) or lithium heparin as anticoagulants.
Plasma Stability Determination: MRS2365, enalapril and procaine were solubilized in phosphate-buffered saline, pH 7.4. […] Stability incubations were initiated with the addition of MRS2365 (1 μM final concentration). Initial assessments of stability in EDTA-generated plasma utilized incubation timepoints of 0, 10, 30, 60, 120 and 240 minutes (FIGS. 3 and 4). […]
Plasma and blood samples were also qualitatively analyzed for MRS2365 metabolites utilizing a LC-MS/MS-based “metabolite scouting” protocol. […] Blood and plasma samples were analyzed by both positive- and negative-ion LC/MS-MS for parent compound and metabolites as it was anticipated that the phosphorylated compounds would preferentially generate negative ions while the riboside MRS4322 would preferentially generate positive ions. In positive-ion mode, extracted ion chromatograms monitored masses in the range of 323.7-324.7 and 403.7-404.7 to scout for MRS4322 and MRS2347, respectively. Any ion peaks in these ranges were further analyzed to generate product ion spectra for these ion chromatogram peaks. […]

A3 receptor = molecular target: T1, A3 receptor (Mus musculus, UniProt Q61618); assay: Affinity at the A3 receptor in the mouse as stated in the discussion; type: binding
T1 sequence (Q61618 1-319): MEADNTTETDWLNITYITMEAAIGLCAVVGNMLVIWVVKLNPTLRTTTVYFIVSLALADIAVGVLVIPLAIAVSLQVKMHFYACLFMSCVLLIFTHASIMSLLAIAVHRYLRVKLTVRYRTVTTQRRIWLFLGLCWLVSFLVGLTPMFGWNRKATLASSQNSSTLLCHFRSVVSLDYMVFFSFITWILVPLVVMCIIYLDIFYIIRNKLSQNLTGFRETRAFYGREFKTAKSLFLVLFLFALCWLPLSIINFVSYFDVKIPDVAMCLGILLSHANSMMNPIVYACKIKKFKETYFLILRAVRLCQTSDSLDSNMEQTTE

[2] = Pharmacokinetics of MRS4322 following intravenous administration to neonatal pigs; type: in vivo; details: 0.2 mg/kg IV; for C0: 0.2 mg/kg, neonatal pig plasma, individual animals
Procedure: Animals. Four-week old female neonatal pigs weighing approximately 7.5 Kg were used for this study, supplied by the Department of Bioengineering, University of Pennsylvania (Philadelphia, PA). Animals were equipped with brain microdialysis probes to obtain brain extracellular fluid samples for drug concentration determinations during the study. All studies were conducted under approved University of Pennsylvania IACUC protocols.
Drug Administration: MRS4322 was solubilized in DMSO and then diluted in saline to prepare dosing solution. A 10 mL volume of dosing solution was administered by intravenous bolus administration to each neonatal pig (n=3).
Tissue Sampling: Blood samples were obtained at 0.25, 0.5, 1, 2, 4 and 6 hours post-dose. Brain extracellular fluid samples were obtained from implanted microdialysis probes at 1, 4 and 6 hours post-dose. Whole blood (1 mL) was obtained at each timepoint and placed in vacutainer tubes containing heparin and immediately centrifuged for preparation of plasma; plasma was stored at −80° C. Brain extracellular and cerebrospinal fluid samples were stored at −80° C. At the time of euthanasia (6 hours post-dose), cerebrospinal fluid samples were obtained and frozen, while brain samples from the cortex and hippocampus were obtained by decapitation, rinsed in ice-cold phosphate-buffered saline and weighed. Brain samples were then immediately flash-frozen in liquid nitrogen and stored at −80° C.
The following table outlines the LC and MS/MS conditions employed:
The calibration ranges for all of the MRS4322 matrice's standard curves were 0.1-1000 ng/mL.
For bioanalysis of brain concentrations of MRS4322, brain samples were homogenized in ice-cold phosphate-buffered saline in a 4× dilution. Aliquots of the resulting diluted brain homogenate were treated with acetonitrile and analyzed by LC-MS/MS.

SMILES | metabolites observed (M2 = MRS2347, M1 = MRS4322) ([1]; 100 μM in human plasma, lithium heparin as anti-coagulant) | MRS2365 concentrations during incubation ([1]; heparin-treated human plasma, 0-90 seconds, even at 0 and 5 seconds) | difference in affinity between MRS4322 and Cl-IB-MECA (A3 receptor) | C0 ([2]; female, pig, plasma, iv, read-out: C0) [ng/mL] | C0 [2] [ng/mL] | Plasma Concentration by Subject ([2]; neonatal pigs, 0 h, individual subjects, BLQ = below 0.0975 ng/mL) | Plasma Concentration Mean ([2]; neonatal pigs, 0 h, BLQ = below 0.0975 ng/mL)
CSc1nc(N)c2ncn([C@H]3[C@H](O)[C@H](O)[C@]4(COP(=O)(O)OP(=O)(O)O)C[C@H]34)c2n1 [MRS2365] | Two metabolites | extremely low |  |  |  |  | 
CSc1nc(N)c2ncn([C@H]3[C@H](O)[C@H](O)[C@]4(CO)C[C@H]34)c2n1 [MRS4322] |  |  | approximately 25,000 fold | 266 | 269 | BLQ | BLQ
